Data from ChEMBL document CHEMBL1127628, “A new arylpiperazine antipsychotic with high D2/D3/5-HT1A/alpha 1A-adrenergic affinity and a low potential for extrapyramidal effects” (J Med Chem, 1994).

How the values were obtained:
[1] = organism: Rattus norvegicus; experiment: The compound was evaluated for the conditioned avoidance response data (CAR) in rat intra peritoneally; assay type: functional
[2] = biological target: D(2) dopamine receptor (Rattus norvegicus, UniProt P61169); experiment: Binding affinity towards dopamine D2 receptors in rat brain synaptosomal preparations; assay type: tissue-based
[3] = biological target: T1, Adrenergic receptor alpha-2 (Rattus norvegicus, UniProt P22086+P19328+P22909)
T1 sequence (P22086 whole entry): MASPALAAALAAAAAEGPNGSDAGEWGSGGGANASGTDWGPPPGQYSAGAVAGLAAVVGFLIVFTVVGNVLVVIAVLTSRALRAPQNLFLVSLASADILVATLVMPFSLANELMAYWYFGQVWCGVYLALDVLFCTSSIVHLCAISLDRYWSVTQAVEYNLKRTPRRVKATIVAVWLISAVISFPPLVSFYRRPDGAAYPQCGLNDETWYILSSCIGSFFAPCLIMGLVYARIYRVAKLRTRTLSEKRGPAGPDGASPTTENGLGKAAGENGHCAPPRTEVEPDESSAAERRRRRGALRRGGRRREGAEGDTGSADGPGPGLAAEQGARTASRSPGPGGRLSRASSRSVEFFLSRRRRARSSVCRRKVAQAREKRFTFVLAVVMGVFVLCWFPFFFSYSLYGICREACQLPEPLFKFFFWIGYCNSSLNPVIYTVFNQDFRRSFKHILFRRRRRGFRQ
T1 sequence (P19328 whole entry): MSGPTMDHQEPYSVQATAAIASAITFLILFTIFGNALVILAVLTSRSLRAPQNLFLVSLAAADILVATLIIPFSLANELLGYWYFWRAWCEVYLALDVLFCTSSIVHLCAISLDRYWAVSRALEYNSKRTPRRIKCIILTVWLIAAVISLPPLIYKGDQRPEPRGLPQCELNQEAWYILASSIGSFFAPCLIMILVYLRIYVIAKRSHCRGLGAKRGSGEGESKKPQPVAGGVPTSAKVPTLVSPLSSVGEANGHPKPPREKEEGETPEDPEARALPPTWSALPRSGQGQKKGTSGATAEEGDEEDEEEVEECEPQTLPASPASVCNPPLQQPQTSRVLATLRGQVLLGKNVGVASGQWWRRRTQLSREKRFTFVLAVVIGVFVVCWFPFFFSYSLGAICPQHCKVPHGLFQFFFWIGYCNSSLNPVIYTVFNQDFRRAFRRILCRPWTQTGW
T1 sequence (P22909 whole entry): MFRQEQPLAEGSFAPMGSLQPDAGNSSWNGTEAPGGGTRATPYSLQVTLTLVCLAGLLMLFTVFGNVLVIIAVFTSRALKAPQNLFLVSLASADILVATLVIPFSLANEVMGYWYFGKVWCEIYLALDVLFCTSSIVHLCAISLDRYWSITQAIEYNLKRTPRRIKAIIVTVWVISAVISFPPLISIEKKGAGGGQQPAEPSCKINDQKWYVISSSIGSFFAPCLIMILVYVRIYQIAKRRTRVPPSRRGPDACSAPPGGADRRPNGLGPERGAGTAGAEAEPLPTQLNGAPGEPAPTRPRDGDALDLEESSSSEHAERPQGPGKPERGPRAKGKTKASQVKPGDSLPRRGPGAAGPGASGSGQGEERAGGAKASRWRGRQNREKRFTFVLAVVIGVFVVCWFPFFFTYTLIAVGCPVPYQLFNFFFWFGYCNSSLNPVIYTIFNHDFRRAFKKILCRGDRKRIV
Description: Binding affinity towards alpha-2 adrenergic receptors in rat brain synaptosomal preparations

[4] = biological target: T2, Adrenergic receptor alpha-1 (Rattus norvegicus, UniProt P15823+P23944+P43140); experiment: Binding affinity towards alpha-1 adrenergic receptors in rat brain synaptosomal preparations; assay type: tissue-based
T2 sequence (P15823 whole entry): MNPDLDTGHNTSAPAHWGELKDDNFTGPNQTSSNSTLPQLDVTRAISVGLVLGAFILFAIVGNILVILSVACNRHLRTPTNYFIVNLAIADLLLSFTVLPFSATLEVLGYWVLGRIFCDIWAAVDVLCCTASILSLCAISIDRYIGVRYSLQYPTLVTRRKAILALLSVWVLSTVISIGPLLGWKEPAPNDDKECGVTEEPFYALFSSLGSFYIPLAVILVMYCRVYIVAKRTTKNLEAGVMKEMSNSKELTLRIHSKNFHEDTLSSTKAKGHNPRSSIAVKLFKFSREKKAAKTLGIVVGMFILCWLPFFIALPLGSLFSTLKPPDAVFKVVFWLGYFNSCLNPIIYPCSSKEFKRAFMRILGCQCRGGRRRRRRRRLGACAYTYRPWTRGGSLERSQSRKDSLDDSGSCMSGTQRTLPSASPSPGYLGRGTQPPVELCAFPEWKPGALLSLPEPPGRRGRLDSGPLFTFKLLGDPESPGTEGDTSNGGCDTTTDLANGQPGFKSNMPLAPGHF
T2 sequence (P23944 whole entry): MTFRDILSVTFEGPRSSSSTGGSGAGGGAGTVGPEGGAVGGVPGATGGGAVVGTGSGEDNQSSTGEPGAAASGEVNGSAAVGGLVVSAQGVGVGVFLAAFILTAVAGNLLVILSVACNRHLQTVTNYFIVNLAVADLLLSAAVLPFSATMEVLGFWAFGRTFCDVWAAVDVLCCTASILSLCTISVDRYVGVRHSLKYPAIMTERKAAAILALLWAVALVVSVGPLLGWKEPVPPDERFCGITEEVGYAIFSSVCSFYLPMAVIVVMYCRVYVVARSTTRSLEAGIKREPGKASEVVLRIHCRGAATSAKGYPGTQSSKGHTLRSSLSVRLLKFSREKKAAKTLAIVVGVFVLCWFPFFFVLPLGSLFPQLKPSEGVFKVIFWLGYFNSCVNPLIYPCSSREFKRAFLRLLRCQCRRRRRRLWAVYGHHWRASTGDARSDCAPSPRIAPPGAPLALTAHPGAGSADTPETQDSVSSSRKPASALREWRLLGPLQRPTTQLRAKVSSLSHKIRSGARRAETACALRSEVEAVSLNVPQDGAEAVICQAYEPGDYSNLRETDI
T2 sequence (P43140 whole entry): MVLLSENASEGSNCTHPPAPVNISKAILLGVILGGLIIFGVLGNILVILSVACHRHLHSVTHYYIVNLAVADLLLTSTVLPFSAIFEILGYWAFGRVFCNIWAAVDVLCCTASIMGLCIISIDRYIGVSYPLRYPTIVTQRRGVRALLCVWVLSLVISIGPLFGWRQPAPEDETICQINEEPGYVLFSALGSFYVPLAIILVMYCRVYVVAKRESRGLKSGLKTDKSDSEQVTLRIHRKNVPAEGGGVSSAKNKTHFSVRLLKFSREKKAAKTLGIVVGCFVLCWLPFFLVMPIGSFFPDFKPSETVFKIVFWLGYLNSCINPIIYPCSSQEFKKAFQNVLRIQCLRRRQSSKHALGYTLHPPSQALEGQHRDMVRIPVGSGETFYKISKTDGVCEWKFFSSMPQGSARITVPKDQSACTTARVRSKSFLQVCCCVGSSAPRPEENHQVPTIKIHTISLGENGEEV

[5] = biological target: T3, 5-hydroxytryptamine receptor 1A (Rattus norvegicus, UniProt P19327)
T3 sequence (P19327 whole entry): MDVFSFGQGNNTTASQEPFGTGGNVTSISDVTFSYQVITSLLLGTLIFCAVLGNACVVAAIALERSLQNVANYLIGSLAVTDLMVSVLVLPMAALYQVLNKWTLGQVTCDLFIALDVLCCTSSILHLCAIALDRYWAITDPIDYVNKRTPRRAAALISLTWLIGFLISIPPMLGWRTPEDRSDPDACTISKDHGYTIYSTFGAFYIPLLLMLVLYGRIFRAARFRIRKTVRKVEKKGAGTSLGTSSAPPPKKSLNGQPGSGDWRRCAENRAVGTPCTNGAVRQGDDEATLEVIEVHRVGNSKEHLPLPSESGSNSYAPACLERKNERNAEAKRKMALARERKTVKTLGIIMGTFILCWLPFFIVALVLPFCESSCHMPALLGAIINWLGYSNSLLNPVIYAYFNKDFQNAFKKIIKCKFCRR
Description: Binding affinity towards 5-hydroxytryptamine 1A receptor of rat brain synaptosomal preparations

[6] = test system: Rattus norvegicus; experiment: The compound is evaluated for inhibition of 8-OH-DPAT induced reciprocal forepaw treading in reserpinized rats after intraperitoneal administration; assay type: functional; settings: ip
[7] = test system: Rattus norvegicus; experiment: The compound was evaluated for the conditioned avoidance response data (CAR) in rat peroral administration; assay type: functional; settings: po
[8] = test system: Mus musculus; experiment: The compound is evaluated for inhibition of apomorphine induced climbing behavior in mice after peroral administration; assay type: functional; settings: po
[9] = biological target: D(1B) dopamine receptor (Rattus norvegicus, UniProt P25115); experiment: Binding affinity towards Dopamine receptor D5 (rat clone)
[10] = biological target: Sigma non-opioid intracellular receptor 1 (Rattus norvegicus, UniProt Q9R0C9); experiment: Binding affinity towards sigma receptors
[11] = test system: Canis familiaris; experiment: The compound is evaluated for inhibition of apomorphine induced emesis in dogs after peroral administration; assay type: functional, Canis lupus familiaris
[12] = biological target: Serotonin 2 (5-HT2) receptor (Rattus norvegicus, UniProt P30994+P08909+P14842); experiment: Binding affinity towards 5-hydroxytryptamine 2 receptor; assay type: protein assay
[13] = biological target: 5-hydroxytryptamine receptor 1B (Rattus norvegicus, UniProt P28564); experiment: Binding affinity towards 5-hydroxytryptamine 1B receptor
[14] = Partition coefficient (logP); assay type: physicochemical; settings: octanol/water
[15] = biological target: D(1A) dopamine receptor (Homo sapiens, UniProt P21728); experiment: Binding affinity towards dopamine receptor D1 (human clone)
[16] = test system: Rattus norvegicus; experiment: The compound is evaluated for induction of catalepsy in rats at a dose of 100 mg/kg after peroral administration; assay type: functional; settings: route oral
[17] = biological target: D(3) dopamine receptor (Rattus norvegicus, UniProt P19020); experiment: Binding affinity towards baculovirus expressed rat dopamine D3 receptors
[18] = test system: Rattus norvegicus; experiment: The compound was evaluated for the conditioned avoidance response data (CAR) in rat intravenous administration at 0.66 mg/kg concentration; assay type: functional
[19] = biological target: Muscarinic acetylcholine receptor; experiment: Binding affinity towards muscarinic receptors; assay type: protein assay, Rattus norvegicus

D(2) dopamine receptor, sequence (P61169 whole entry): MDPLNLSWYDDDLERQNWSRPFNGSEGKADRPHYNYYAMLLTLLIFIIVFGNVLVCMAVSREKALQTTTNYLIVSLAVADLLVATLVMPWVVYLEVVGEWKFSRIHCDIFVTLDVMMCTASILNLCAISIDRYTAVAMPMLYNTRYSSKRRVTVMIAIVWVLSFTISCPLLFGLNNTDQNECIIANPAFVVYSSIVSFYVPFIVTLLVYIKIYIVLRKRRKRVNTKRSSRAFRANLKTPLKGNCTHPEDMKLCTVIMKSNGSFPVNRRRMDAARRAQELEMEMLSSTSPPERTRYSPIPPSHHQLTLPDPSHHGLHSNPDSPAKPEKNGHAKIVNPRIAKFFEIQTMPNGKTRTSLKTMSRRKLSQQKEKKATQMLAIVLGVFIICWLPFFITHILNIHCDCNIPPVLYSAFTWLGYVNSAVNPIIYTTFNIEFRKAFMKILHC
D(1A) dopamine receptor, sequence (P21728 whole entry): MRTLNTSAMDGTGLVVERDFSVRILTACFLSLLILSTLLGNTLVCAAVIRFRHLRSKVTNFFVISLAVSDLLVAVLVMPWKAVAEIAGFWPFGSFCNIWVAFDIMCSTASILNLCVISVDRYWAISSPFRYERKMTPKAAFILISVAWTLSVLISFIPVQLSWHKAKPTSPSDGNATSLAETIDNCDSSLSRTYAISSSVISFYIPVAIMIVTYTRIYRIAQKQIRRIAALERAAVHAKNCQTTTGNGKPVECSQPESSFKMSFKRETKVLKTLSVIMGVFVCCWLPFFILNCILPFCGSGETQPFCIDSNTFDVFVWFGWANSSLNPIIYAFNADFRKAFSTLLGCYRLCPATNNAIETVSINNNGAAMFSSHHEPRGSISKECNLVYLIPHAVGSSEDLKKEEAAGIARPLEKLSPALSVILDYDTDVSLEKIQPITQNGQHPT
Sigma non-opioid intracellular receptor 1, sequence (Q9R0C9 whole entry): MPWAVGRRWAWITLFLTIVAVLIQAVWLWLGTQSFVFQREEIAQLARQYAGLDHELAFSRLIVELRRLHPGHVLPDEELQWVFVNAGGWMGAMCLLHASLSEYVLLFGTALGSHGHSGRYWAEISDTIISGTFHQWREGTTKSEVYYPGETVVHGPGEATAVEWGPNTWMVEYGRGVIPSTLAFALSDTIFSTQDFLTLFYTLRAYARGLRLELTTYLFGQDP
D(3) dopamine receptor, sequence (P19020 whole entry): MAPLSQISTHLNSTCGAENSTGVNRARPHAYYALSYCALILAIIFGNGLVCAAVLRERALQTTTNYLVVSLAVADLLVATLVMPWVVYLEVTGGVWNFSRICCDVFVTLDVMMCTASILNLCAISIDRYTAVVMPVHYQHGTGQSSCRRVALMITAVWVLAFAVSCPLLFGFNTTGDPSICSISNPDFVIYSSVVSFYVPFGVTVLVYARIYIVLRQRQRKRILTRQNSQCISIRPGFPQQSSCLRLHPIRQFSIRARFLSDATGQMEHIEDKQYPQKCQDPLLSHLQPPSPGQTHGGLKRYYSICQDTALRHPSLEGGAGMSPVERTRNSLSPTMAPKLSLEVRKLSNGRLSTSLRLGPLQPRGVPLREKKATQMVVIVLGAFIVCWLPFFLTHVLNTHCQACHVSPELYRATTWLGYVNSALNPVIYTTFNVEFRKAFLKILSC
D(1B) dopamine receptor, sequence (P25115 whole entry): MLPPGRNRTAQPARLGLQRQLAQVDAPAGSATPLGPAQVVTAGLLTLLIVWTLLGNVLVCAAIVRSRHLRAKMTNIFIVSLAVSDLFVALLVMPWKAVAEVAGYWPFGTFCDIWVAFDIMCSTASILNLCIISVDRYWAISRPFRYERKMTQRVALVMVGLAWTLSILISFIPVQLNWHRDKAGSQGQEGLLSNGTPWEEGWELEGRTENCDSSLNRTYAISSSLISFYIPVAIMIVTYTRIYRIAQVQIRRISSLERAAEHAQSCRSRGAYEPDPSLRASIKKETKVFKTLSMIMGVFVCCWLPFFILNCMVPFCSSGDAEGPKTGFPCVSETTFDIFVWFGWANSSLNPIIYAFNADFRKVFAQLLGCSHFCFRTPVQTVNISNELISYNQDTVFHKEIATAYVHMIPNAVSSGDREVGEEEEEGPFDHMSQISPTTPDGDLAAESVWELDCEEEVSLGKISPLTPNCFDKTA
5-hydroxytryptamine receptor 1B, sequence (P28564 whole entry): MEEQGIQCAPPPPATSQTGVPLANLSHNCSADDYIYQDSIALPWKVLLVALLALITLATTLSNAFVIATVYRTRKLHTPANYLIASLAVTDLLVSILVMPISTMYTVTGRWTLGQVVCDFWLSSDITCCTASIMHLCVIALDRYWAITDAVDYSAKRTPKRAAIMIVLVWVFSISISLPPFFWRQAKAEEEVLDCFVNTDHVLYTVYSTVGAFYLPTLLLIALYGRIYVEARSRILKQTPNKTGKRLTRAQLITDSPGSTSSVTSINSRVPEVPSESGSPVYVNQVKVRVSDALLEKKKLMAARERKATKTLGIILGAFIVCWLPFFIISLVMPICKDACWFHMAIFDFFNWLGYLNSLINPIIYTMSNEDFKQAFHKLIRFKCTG

## CN1CCN(C2=Nc3cc(Cl)ccc3Nc3ccccc32)CC1 [CLOZAPINE]
[1]
  ED50: 4 mg/kg

## CC(C)Oc1ccccc1N1CCN(Cc2ccccc2C(=O)N2CCCCC2)CC1
[2]
  Ki: 37 nM
[3]
  Ki: 16 nM
[4]
  Ki: 220 nM
[5]
  Ki: 6.8 nM

## CC(C)Oc1ccccc1N1CCN(Cc2cccc(C(=O)N3CCCCC3)c2)CC1 [MAZAPERTINE]
[6]
  ED50: 5.24 mg/kg
[7]
  ED50: 13.8 mg/kg
[8]
  ED50: 0.6 mg/kg
[9]
  Ki: > 5000 nM
[10]
  Ki: > 5000 nM
[11]
  ED50: 0.038 mg/kg
[12]
  Ki: 165 nM
[3]
  Ki: 17 nM
[13]
  Ki: 2880 nM
[14]
  logP: 4
[15]
  Ki: > 5000 nM
[16]
  Catalepsy: 30%
[17]
  Ki: 1.8 nM
[18]
  ED50: 0.23 mg/kg
[19]
  Ki: > 5000 nM

## CC(C)Oc1ccccc1N1CCN(Cc2ccc(CN3CCCCC3=O)cc2)CC1
[3]
  Ki: 1000 nM

## CC(C)Oc1ccccc1N1CCN(Cc2ccc(C(=O)N3CCCCC3)cc2)CC1
[2]
  Ki: 100 nM
[4]
  Ki: 3 nM
[5]
  Ki: 560 nM
